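Tested at 5 concentrations; 48 h exposure; 96-well plates; endpoints linearly interpolated, else capped at highest concentration. GI50 is the concentration that inhibits growth by half.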 Calls of active or inactive are those of the source. No stated cut-off is given here; in the data, active = GI50 up to about 1.1 µM and inactive = higher.
Columns and labels:
Test in all cases: inhibition of tumour cell growth, NCI panel, 48 h
SF-539 = test system: SF-539
TK-10 = test system: TK-10
OVCAR-3 = test system: OVCAR-3
UACC-257 = test system: UACC-257
NCI-H522 = test system: NCI-H522
HCT-116 = test system: HCT-116
SK-MEL-28 = test system: SK-MEL-28
SF-295 = test system: SF-295
SK-MEL-2 = test system: SK-MEL-2
SW-620 = test system: SW-620
786-0 = test system: 786-0
NCI-H23 = test system: NCI-H23
SNB-75 = test system: SNB-75
MCF7 = test system: MCF7
NCI-H226 = test system: NCI-H226
HCT-15 = test system: HCT-15
HT-29 = test system: HT-29
HL-60 = test system: HL-60
IGROV-1 = test system: IGROV-1
Hs-578T = test system: Hs-578T

Structure (SMILES): Cc1cc2[nH]c3c(C#N)c(-c4ccccc4)c(/C=N/c4ccc(Cl)cc4)c(=O)n3c2cc1C
- GI50 (SF-539): > 100 µM (inactive)
- GI50 (TK-10): > 100 µM (inactive)
- GI50 (OVCAR-3): > 100 µM (inactive)
- GI50 (UACC-257): > 100 µM (inactive)
- GI50 (NCI-H522): > 100 µM (inactive)
- GI50 (HCT-116): > 100 µM (inactive)
- GI50 (SK-MEL-28): > 100 µM (inactive)
- GI50 (SF-295): > 100 µM (inactive)
- GI50 (SK-MEL-2): > 100 µM (inactive)
- GI50 (SW-620): > 100 µM (inactive)
- GI50 (786-0): > 100 µM (inactive)
- GI50 (NCI-H23): > 100 µM (inactive)
- GI50 (SNB-75): > 100 µM (inactive)
- GI50 (MCF7): > 100 µM (inactive)
- GI50 (NCI-H226): > 100 µM (inactive)
- GI50 (HCT-15): > 100 µM

Structure (SMILES): Cc1cc(S(=O)(=O)O)c(NC(=O)C(=O)C2C=CCS2(=O)=O)cc1Cl (stereo unspecified)
- GI50 (HT-29): > 100 µM (inactive)
- GI50 (SF-539): > 100 µM (inactive)
- GI50 (TK-10): > 100 µM (inactive)
- GI50 (HL-60): > 100 µM (inactive)
- GI50 (OVCAR-3): > 100 µM (inactive)
- GI50 (UACC-257): > 100 µM (inactive)
- GI50 (NCI-H522): > 100 µM (inactive)
- GI50 (HCT-116): > 100 µM (inactive)
- GI50 (SK-MEL-28): > 100 µM (inactive)
- GI50 (IGROV-1): > 100 µM (inactive)
- GI50 (SF-295): > 100 µM (inactive)
- GI50 (SK-MEL-2): > 100 µM (inactive)
- GI50 (SW-620): > 100 µM (inactive)
- GI50 (786-0): > 100 µM (inactive)
- GI50 (NCI-H23): > 100 µM (inactive)
- GI50 (SNB-75): > 100 µM (inactive)
- GI50 (NCI-H226): > 100 µM (inactive)
- GI50 (HCT-15): > 100 µM

Structure (SMILES): CC1(C)CCC[C@@]2(C)C1C[C@H](O)[C@@]1(C)O[C@@](C)([C@H](O)CO)CCC21 (stereo partly specified)
- GI50 (HT-29): 33 µM (inactive)
- GI50 (SF-539): 37.2 µM (inactive)
- GI50 (TK-10): 22.9 µM (inactive)
- GI50 (HL-60): 24.9 µM (inactive)
- GI50 (OVCAR-3): 29.8 µM (inactive)
- GI50 (UACC-257): 33.5 µM (inactive)
- GI50 (NCI-H522): 25.9 µM (inactive)
- GI50 (HCT-116): 33 µM (inactive)
- GI50 (SK-MEL-28): 34.6 µM (inactive)
- GI50 (IGROV-1): 28.9 µM (inactive)
- GI50 (SF-295): 35.6 µM (inactive)
- GI50 (SK-MEL-2): 20.7 µM (inactive)
- GI50 (SW-620): 47 µM (inactive)
- GI50 (786-0): 44 µM (inactive)
- GI50 (NCI-H23): 33.7 µM (inactive)
- GI50 (SNB-75): 20.1 µM (inactive)
- GI50 (NCI-H226): 28.7 µM (inactive)
- GI50 (HCT-15): 45.5 µM

Structure (SMILES): COc1cc2c(c(OC(C)=O)c1OC(C)=O)-c1ccc(SC)c(=O)cc1C(NC(C)=O)CC2 (stereo unspecified)
- GI50 (HT-29): 2.04 µM (inactive)
- GI50 (SF-539): 0.494 µM (active)
- GI50 (TK-10): 28.7 µM (inactive)
- GI50 (HL-60): 0.375 µM (active)
- GI50 (OVCAR-3): 0.5 µM (active)
- GI50 (UACC-257): 1.07 µM (active)
- GI50 (NCI-H522): 0.379 µM (active)
- GI50 (HCT-116): 1.36 µM (inactive)
- GI50 (SK-MEL-28): 3.24 µM (inactive)
- GI50 (IGROV-1): 4.45 µM (inactive)
- GI50 (SF-295): 2.23 µM (inactive)
- GI50 (SK-MEL-2): 0.565 µM (active)
- GI50 (SW-620): 0.951 µM (active)
- GI50 (786-0): 3.87 µM (inactive)
- GI50 (NCI-H23): 1.92 µM (inactive)
- GI50 (SNB-75): 0.255 µM (active)
- GI50 (NCI-H226): 6.87 µM (inactive)
- GI50 (HCT-15): 31.7 µM

Structure (SMILES): CCN(CC)C(=O)c1c(N2CCOCC2)cc(N(CC)CC)oc1=O
- GI50 (HT-29): > 100 µM (inactive)
- GI50 (SF-539): > 100 µM (inactive)
- GI50 (TK-10): > 100 µM (inactive)
- GI50 (HL-60): > 100 µM (inactive)
- GI50 (OVCAR-3): > 100 µM (inactive)
- GI50 (UACC-257): > 100 µM (inactive)
- GI50 (NCI-H522): > 100 µM (inactive)
- GI50 (HCT-116): > 100 µM (inactive)
- GI50 (SK-MEL-28): > 100 µM (inactive)
- GI50 (IGROV-1): > 100 µM (inactive)
- GI50 (SF-295): > 100 µM (inactive)
- GI50 (SK-MEL-2): > 100 µM (inactive)
- GI50 (SW-620): > 100 µM (inactive)
- GI50 (786-0): > 100 µM (inactive)
- GI50 (NCI-H23): > 100 µM (inactive)
- GI50 (SNB-75): > 100 µM (inactive)
- GI50 (NCI-H226): > 100 µM (inactive)
- GI50 (HCT-15): > 100 µM

Structure (SMILES): [O-][S+]1c2ccccc2SCSc2ccccc21
- GI50 (HT-29): > 100 µM (inactive)
- GI50 (SF-539): > 100 µM (inactive)
- GI50 (TK-10): > 100 µM (inactive)
- GI50 (OVCAR-3): > 100 µM (inactive)
- GI50 (NCI-H522): > 100 µM (inactive)
- GI50 (HCT-116): > 100 µM (inactive)
- GI50 (SF-295): > 100 µM (inactive)
- GI50 (SK-MEL-2): > 100 µM (inactive)
- GI50 (786-0): > 100 µM (inactive)
- GI50 (NCI-H23): > 100 µM (inactive)
- GI50 (MCF7): > 100 µM (inactive)
- GI50 (HCT-15): > 100 µM

Structure (SMILES): COC(=O)NN=C1C(C)(C)C(=NNC(=O)OC)C1(C)C
- GI50 (HT-29): > 36.9 µM (inactive)
- GI50 (SF-539): > 100 µM (inactive)
- GI50 (TK-10): > 100 µM (inactive)
- GI50 (HL-60): > 100 µM (inactive)
- GI50 (OVCAR-3): > 100 µM (inactive)
- GI50 (UACC-257): > 100 µM (inactive)
- GI50 (NCI-H522): > 61.4 µM (inactive)
- GI50 (HCT-116): > 45.5 µM (inactive)
- GI50 (SK-MEL-28): > 100 µM (inactive)
- GI50 (IGROV-1): > 100 µM (inactive)
- GI50 (SF-295): > 100 µM (inactive)
- GI50 (SK-MEL-2): > 100 µM (inactive)
- GI50 (SW-620): > 100 µM (inactive)
- GI50 (786-0): > 100 µM (inactive)
- GI50 (NCI-H23): > 48.9 µM (inactive)
- GI50 (SNB-75): > 100 µM (inactive)
- GI50 (NCI-H226): > 100 µM (inactive)
- GI50 (HCT-15): > 90.6 µM

Structure (SMILES): Cc1ccc(-n2cnc3c(N/N=C4\SCC(=O)N4c4ccccc4)ncnc32)cc1
- GI50 (Hs-578T): 3.85 µM (inactive)
- GI50 (HT-29): 3.44 µM (inactive)
- GI50 (SF-539): 1.87 µM (inactive)
- GI50 (TK-10): 3.63 µM (inactive)
- GI50 (HL-60): 1.41 µM (inactive)
- GI50 (OVCAR-3): 3.13 µM (inactive)
- GI50 (UACC-257): 3.87 µM (inactive)
- GI50 (NCI-H522): 3.52 µM (inactive)
- GI50 (HCT-116): 2.63 µM (inactive)
- GI50 (SK-MEL-28): 2.95 µM (inactive)
- GI50 (IGROV-1): 4 µM (inactive)
- GI50 (SF-295): 13.3 µM (inactive)
- GI50 (SK-MEL-2): 2.31 µM (inactive)
- GI50 (SW-620): 4.01 µM (inactive)
- GI50 (786-0): 3.15 µM (inactive)
- GI50 (NCI-H23): 3.37 µM (inactive)
- GI50 (NCI-H226): 4.02 µM (inactive)
- GI50 (HCT-15): 2.3 µM

From ChEMBL document CHEMBL1201862, “PubChem BioAssay data set” (2004)
